# How the values were obtained:
# SMARCA4 = assay: Phosphoproteomics (LC-MS/MS) in YB5 cells; assay type: cell-based, human; details: 500 nM, 4 hr
# Experimental: YB5 cells were treated with or without 500 nM MC180295 for 4 hours. Nuclear fraction was enriched using a hypotonic lysis buffer as previously described (Boden, G., Homko, C., Barrero, C. A., Stein, T. P., Chen, X., Cheung, P., Fecchio, C., Koller, S., and Merali, S. (2015), Sci Transl Med 7, 304-307). Proteins from the nuclear fraction were extracted with M-PER Mammalian Protein Extraction Reagent (Thermo Scientific, #78501) in the presence of protease and phosphatase inhibitors (Halt™ Protease Inhibitor Cocktail, #87785 and Halt™ Phosphatase Inhibitor Single-Use Cocktail, #78428). Phosphoproteins were enriched from 500 μg of nuclear extracted proteins, using a phosphoprotein purification kit (QIAGEN, #37101). Both samples were processed using in-StageTip method for digestion and peptide purification before performing LC-MS/MS proteomics analysis. The mass spectrometry proteomics data have been deposited to the ProteomeXchange Consortium via the PRIDE (Vizcaino, J. A., Csordas, A., del-Toro, N., Dianes, J. A., Griss, J., Lavidas, I., Mayer, G., Perez-Riverol, Y., Reisinger, F., Tement, T., et al. (2016). 2016 update of the PRIDE database and its related tools. Nucleic Acids Res 44, D447-456) partner repository with the dataset identifier PXD008040. […]
# YB5 = assay: Cell cycle analysis and sub-G1 (propidium iodide); assay type: cell-based, human; details: four-day drug treatment
# Experimental: For drug screening and dose response validations, GFP positive cells were detected by Millipore Guava flow cytometer (EMD, Millipore). Cell cycle analysis was performed using BD FACSCalibur™ by propidium iodide staining four days after drug treatment. Sub-G1 population percentage was also included to measure apoptotic cell proportion. Data were analyzed using FlowJo software version 10.2. For the cell differentiation analysis, cells were washed and stained with propidium iodide (PI), CD11 b (BD Biosciences, #562793) and the isotype control IgG (BD Biosciences, #555748). Flow cytometry analysis was performed on a Millipore Guava flow cytometer (EMD, Millipore). For the ID8 in vivo experiments, ascites was drained from 5-10 mice per group and incubated in ACK buffer (Thermo Fisher) to lyse red blood cells for 10 minutes, then washed. Ascites from each mouse was individually lysed and prepared for flow cytometry. Mononuclear cells collected were cultured for 4 hours in RPMI with 5% Fetal Bovine Serum and in the presence of Cell Stimulation Cocktail (plus protein transport inhibitors; eBioscience). […] Flow cytometry acquisition was performed on an LSRII cytometer (BD Biosciences) and data were analyzed using FlowJo software version 10.2.
# SW48 colon cancer cells = assay: SW48-luc tumors in NSG mice (bioluminescence); assay type: in vivo, mouse; details: 10 mg/kg
# Experimental: SW48-luc cell line was generated by transfecting ffluc2ires-h2b-egfp into SW48 cells. GFP positive cells were sorted out one week after transfection and expanded for the in vivo experiments. NSG mice were then inoculated (i.p.) with 1×10^5 SW48-luc cells. One week later, at which time substantial tumor burden was evident by bioluminescence imaging, 5-20 mg/kg MC180295 or drug solvent was administered (i.p) every other day. 200 uL of diluted Pierce™ D-Luciferin, Monosodium Salt (Fisher, 88292) (working concentration: 15 mg/mL) was administered (i.p) into each mouse and was imaged using IVIS imaging system 5 minutes after the administration. Three vehicle treated mice and five drug treated mice were used in this study. MC180295 was dissolved in NMP, Captisol (20% w/v), PEG-400 and normal saline (PBS) in a ratio of 1:4:4:11. NMP first, followed by Captisol and PEG-400. PBS was added last.
# SW48 and HCT116 cells = assay: qPCR for ERV expression; assay type: cell-based, human; details: Four-day treatment
# Experimental: Total RNA was extracted using TRIzol reagent (Invitrogen) following the manufacturer's protocol and RNA concentrations were measured using Nanodrop. cDNAs were synthesized using High Capacity cDNA Reverse Transcription Kit (ThermoFisher) and qPCR was performed using either ready-made TaqMan® assays or SYBR-green using custom-designed primers. All the data were analyzed using Applied Biosystems software (StepOne™ Software V2.3). For all experiments, relative expression levels of the target genes were determined by calculating the 2^−ΔΔCt values. All experiments were performed at least in triplicates. Either GAPDH or 18S rRNA was used as an internal normalization control for protein coding genes. RPLPO was used as an internal normalization control for ERVs. All SYBR-green primers were described previously and are listed in Table 1 along with TaqMan® probes used.
# GSK-3β = biological target: T1, GSK-3β (Homo sapiens, UniProt P49841); assay: 250 kinome screening at 1 μM; assay type: biochemical
# T1 construct: Nanosyn (contract assay)
# Experimental: HDAC inhibitory activity assays were performed using FLUOR DE LYS® HDAC fluorometric activity assay kit from Enzo following the manufacturer's instructions. GloMax®-Multi Detection System (Promega) was used to read the fluorescence signals. Histone methyltransferase and demethylase enzymatic assays were performed by BPS Bioscience at 10 μM in duplicates. Kinase enzymatic assays were performed by Nanosyn using microfluidic technology. 250 kinome screening was done in duplicates using MC180295 at 1 μM. IC50 curves against 10 CDKs were created for MC180295. The human kinome tree was annotated using the online Kinome Render software (Chartier, M., Chénard, T., Barker, J., and Najmanovich, R. (2013). PeerJ 1, e126). Isotope kinase assay was performed using previously described methods (Garriga, J., Peng, J., Parreño, M., Price, D. H., Henderson, E. E., and Graña, X. (1998). Oncogene 17, 3093-3102) using recombinant active full-length CDK9/CyclinT1 (Millipore, 14-685) and SMARCA4 (Abcam, ab82237) in the presence or absence of CDK9 inhibitors.
# T1 sequence (P49841 whole entry): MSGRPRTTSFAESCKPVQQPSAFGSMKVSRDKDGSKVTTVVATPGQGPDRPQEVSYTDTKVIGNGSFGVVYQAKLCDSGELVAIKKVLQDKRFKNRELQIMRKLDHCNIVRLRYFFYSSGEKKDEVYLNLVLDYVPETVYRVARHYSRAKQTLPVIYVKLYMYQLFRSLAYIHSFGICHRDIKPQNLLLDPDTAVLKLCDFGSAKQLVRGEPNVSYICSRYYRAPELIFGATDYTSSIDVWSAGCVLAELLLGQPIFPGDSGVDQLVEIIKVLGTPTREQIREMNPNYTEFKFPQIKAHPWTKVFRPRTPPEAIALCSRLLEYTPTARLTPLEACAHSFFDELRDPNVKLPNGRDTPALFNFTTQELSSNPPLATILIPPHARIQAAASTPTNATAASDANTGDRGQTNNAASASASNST
compound,measurement,setting,value
Nc1nc(N[C@H]2CC3CCC2C3)sc1C(=O)c1ccccc1[N+](=O)[O-] (stereo partly shown) [MC180295],phosphorylation of SMARCA4 serine/threonine residues,SMARCA4,dephosphorylated
same,cell cycle arrest,YB5,no cell cycle arrest
same,sub-G1 subpopulation,YB5,increase in the sub-G1 subpopulation
same,tumor shrinkage (luciferase activity),SW48 colon cancer cells; after one-week drug exposure,~50%
same,tumor burden (luciferase activity),SW48 colon cancer cells; after three weeks drug treatment,lower
same,ERV expression,SW48 and HCT116 cells,activated the expression of several ERVs
same,inhibition,GSK-3β,inhibited
